Results on 43 substances are retold here after patent US7833967B2, “Synthetic antimicrobial polypeptides” (priority 2003, dated 2010).

The subject of the assay is E. coli TOP10. As to the kind of experiment: Suicide expression system (SES) growth inhibition. Format: cell-based.
Setting [1] is: Table 3, variants of SEQ ID NO:5, re-tested in the Bioscreen C.
[2] abbreviates: Table 4, variants of SEQ ID NO:10, re-tested in the Bioscreen C.
[3] abbreviates: Table 5, mixed-motif library, re-tested in the Bioscreen C.
Where [4] appears, read: Table 1, 0.1% inducer (arabinose), pBAD/gIIIA in E. coli TOP10, Bioscreen C 37° C., end point OD450 vs control vector.
[5] abbreviates: Table 2, variants of SEQ ID NO:1, re-tested in the Bioscreen C.

For “57 (RRRPRPIPRPFPRPIPRPIPRPFPRPF; Synthetic antimicrobial peptide) [compound 57]”, under setting [1], the “Growth inhibition (%)” value amounted to 73%. Still for that read-out and setting: with “31 (RRRPRPFPRPFPHPFPRPFPRPIPRPI; Synthetic antimicrobial peptide) [compound 31]” the figure was 73%. As for “159 (RRRPVRPPIRPPIRPPVRPPLRPPVRP; Synthetic antimicrobial peptide) [compound 159]”, under setting [2], the “Growth inhibition (%)” value is 35%. As for “254 (RRRPPRLPRPIPFRPPPRVPRPFPIRP; Synthetic antimicrobial peptide) [compound 254]”, under setting [3], the “Growth inhibition (%)” value came out at 77%. With “171 (RRRPIRPPIRPPIRPPIRPPFRPPFRP; Synthetic antimicrobial peptide) [compound 171]”, under setting [2], the “Growth inhibition (%)” value came to 77%. “255 (RRRPPRLPRPIPIRPPPRFPRPVPFRP; Synthetic antimicrobial peptide) [compound 255]”: the “Growth inhibition (%)” value under setting [3] is reported as 93%. Turning to “86 (RRRPIRPPFRPPLRPPLRPPVRPPFRP; Synthetic antimicrobial peptide) [compound 86]”, the “Growth inhibition (%)” value under setting [2] is recorded as 74%.

In the case of “260 (RRRPPRLPRPIPVRPPPRIPRPIPVRP; Synthetic antimicrobial peptide) [compound 260]”, the “Growth inhibition (%)” value under setting [3] came out at 90%. Turning to “197 (RRRPFRPPFRPPFRPPFRPPLRPPFRP; Synthetic antimicrobial peptide) [compound 197]”, the “Growth inhibition (%)” value under setting [2] was determined as 86%. For “244 (RRRPPRLPRPFPVRPPPRLPRPVPFRP; Synthetic antimicrobial peptide) [compound 244]”, under setting [3], the “Growth inhibition (%)” value is on record as 90%. Consider “48 (RRRPRPFPRPFPRPVPRPVPRPVPRPF; Synthetic antimicrobial peptide) [compound 48]”, for which, under setting [1], the “Growth inhibition (%)” value stood at 59%. For “131 (RRRPIRPPFRPPFRPPIRPPIRPPVRP; Synthetic antimicrobial peptide) [compound 131]”, the “Growth inhibition (%)” value under setting [2] stood at 75%. As for “114 (RRRPLRPPLRPPFRPPLRPPFRPPFRP; Synthetic antimicrobial peptide) [compound 114]”, under setting [2], the “Growth inhibition (%)” value turned out to be 74%. On to “5 (RRRPRPFPRPFPRPFPRPFPRPFPRPF; Synthetic antimicrobial peptide) [compound 5]”, for which the “Growth inhibition (%)” value under setting [4] is 57%. In the case of “93 (RRRPFRPPFRPPFRPPVRPPLRPPIRP; Synthetic antimicrobial peptide) [compound 93]”, the “Growth inhibition (%)” value under setting [2] amounted to 61%. For “313 (RRRPPRVPRPIPIRPPPRVPRPVPVRP; Synthetic antimicrobial peptide) [compound 313]”, the “Growth inhibition (%)” value under setting [3] was 92%. The same measure, in the same setting: with “250 (RRRPPRLPRPIPFRPPPRIPRPIPVRP; Synthetic antimicrobial peptide) [compound 250]” the figure was 96%. Regarding “144 (RRRPIRPPLRPPVRPPVRPPFRPPFRP; Synthetic antimicrobial peptide) [compound 144]”, the “Growth inhibition (%)” value under setting [2] came out at 64%.

In the case of “44 (RRRPRPFPRPFPRPLPRPFPRPVPRPF; Synthetic antimicrobial peptide) [compound 44]”, the “Growth inhibition (%)” value under setting [1] is 95%. For “126 (RRRPIRPPIRPPLRPPFRPPFRPPFRP; Synthetic antimicrobial peptide) [compound 126]”, under setting [2], the “Growth inhibition (%)” value is reported as 77%. As to “293 (RRRPPRLPRPVPFRPPPRFPRPFPIRP; Synthetic antimicrobial peptide) [compound 293]”, the “Growth inhibition (%)” value under setting [3] was found to be 93%.

Consider “165 (RRRPFRPPLRPPFRPPVRPPLRPPVRP; Synthetic antimicrobial peptide) [compound 165]”, for which the “Growth inhibition (%)” value under setting [2] was determined as 65%.

In the case of “310 (RRRPPRVPRPFPIRPPPRVPRPVPVRP; Synthetic antimicrobial peptide) [compound 310]”, under setting [3], the “Growth inhibition (%)” value is listed as 93%. “27 (RRRPPRLPPRLPPRLPPRVPPRVPLVSNCSRTKTHLRRGSE; Synthetic antimicrobial peptide) [compound 27]”: the “Growth inhibition (%)” value under setting [5] is recorded as 90%.

Regarding “285 (RRRPPRLPRPLPVRPPPRIPRPFPVRP; Synthetic antimicrobial peptide) [compound 285]”, the “Growth inhibition (%)” value under setting [3] came to 91%. Consider “2 (RRRPRFPPRFPPRFPPRFPPRFPPRFP; Synthetic antimicrobial peptide) [compound 2]”, for which, under setting [4], the “Growth inhibition (%)” value is 45%.

“191 (RRRPFRPPFRPPIRPPFRPPVRPPFRP; Synthetic antimicrobial peptide) [compound 191]”: under setting [2], the “Growth inhibition (%)” value was determined as 77%. As to “301 (RRRPPRLPRPVPIRPPPRVPRPVPLRP; Synthetic antimicrobial peptide) [compound 301]”, the “Growth inhibition (%)” value under setting [3] was determined as 92%. Turning to “124 (RRRPFRPPIRPPLRPPVRPPLRPPFRP; Synthetic antimicrobial peptide) [compound 124]”, the “Growth inhibition (%)” value under setting [2] was 73%. As to “207 (RRRPPRFPRPFPIRPPPRFPRPIPFRP; Synthetic antimicrobial peptide) [compound 207]”, the “Growth inhibition (%)” value under setting [3] was 93%. For “26 (RRRPPRVPPRFPPRVPPRFPPRVPLRL; Synthetic antimicrobial peptide) [compound 26]”, under setting [5], the “Growth inhibition (%)” value came to 86%. Regarding “319 (RRRPPRVPRPFPVRPPPRVPRPIPFVHNCSRTKTHLRRGSE; Synthetic antimicrobial peptide) [compound 319]”, the “Growth inhibition (%)” value under setting [3] is on record as 93%. Regarding “98 (RRRPFRPPFRPPVRPPIRPPLRPPFRP; Synthetic antimicrobial peptide) [compound 98]”, the “Growth inhibition (%)” value under setting [2] turned out to be 63%. For the substance “88 (RRRPFRPPLRPPLRPPVRPPVRPPFRP; Synthetic antimicrobial peptide) [compound 88]”, the “Growth inhibition (%)” value under setting [2] amounted to 82%. Take “192 (RRRPFRPPFRPPFRPPVRPPVRPPFRP; Synthetic antimicrobial peptide) [compound 192]”: the “Growth inhibition (%)” value under setting [2] was determined as 92%. For the substance “29 (RRRPRLPRPFPRPVPRPLPRPVPRPI; Synthetic antimicrobial peptide) [compound 29]”, under setting [1], the “Growth inhibition (%)” value is recorded as 63%.

On to “222 (RRRPPRLPRPFPIRPPPRFPRPVPLRP; Synthetic antimicrobial peptide) [compound 222]”, for which the “Growth inhibition (%)” value under setting [3] is given as 93%.

Turning to “82 (RRRPIRPPFRPPVRPPFRPPFRPPFRP; Synthetic antimicrobial peptide) [compound 82]”, under setting [2], the “Growth inhibition (%)” value amounted to 71%. In the case of “228 (RRRPPRLPRPFPLRPPPRFPRPFPIRP; Synthetic antimicrobial peptide) [compound 228]”, the “Growth inhibition (%)” value under setting [3] is 96%. The same measure, in the same setting: for “294 (RRRPPRLPRPVPFRPPPRFPRPVPLRP; Synthetic antimicrobial peptide) [compound 294]” the value was 95%. The same measure, in the same setting: for “238 (RRRPPRLPRPFPVRPPPRFPRPFPIRP; Synthetic antimicrobial peptide) [compound 238]” the value was 95%. For “127 (RRRPIRPPFRPPLRPPFRPPFRPPLRP; Synthetic antimicrobial peptide) [compound 127]”, the “Growth inhibition (%)” value under setting [2] is given as 67%. “135 (RRRPIRPPIRPPIRPPIRPPIRPPLRP; Synthetic antimicrobial peptide) [compound 135]”: the “Growth inhibition (%)” value under setting [2] was found to be 38%.
